# Measurements from ChEMBL document CHEMBL4138123, “Design, synthesis and biological evaluation of novel pyrazolochalcones as potential modulators of PI3K/Akt/mTOR pathway and inducers of apoptosis in breast cancer cells” (Eur J Med Chem, 2017).
# Key:
# RPMI-8226 = experiment: Cytotoxicity against human RPMI8226 cells assessed as growth inhibition after 48 hrs by sulforhodamine B assay; format: functional; settings: RPMI-8226, 48 h
# SR [1] = experiment: Cytotoxicity against human SR cells assessed as growth inhibition after 48 hrs by sulforhodamine B assay; format: functional; settings: for CC50: read-out: LC50 (the source's name)
# NCI-H522 = experiment: Cytotoxicity against human NCI-H522 cells assessed as growth inhibition after 48 hrs by sulforhodamine B assay; format: functional; settings: NCI-H522, 48 h
# UACC-62 [2] = experiment: Cytotoxicity against human UACC62 cells assessed as growth inhibition after 48 hrs by sulforhodamine B assay; format: functional; settings: UACC-62, 48 h
# 786-0 [3] = experiment: Cytotoxicity against human 786-0 cells assessed as growth inhibition after 48 hrs by sulforhodamine B assay; format: functional; settings: 786-0, 48 h
# TK-10 = experiment: Cytotoxicity against human TK10 cells assessed as growth inhibition after 48 hrs by sulforhodamine B assay; format: functional; settings: TK-10, 48 h
# UO-31 [4] = experiment: Cytotoxicity against human UO31 cells assessed as growth inhibition after 48 hrs by sulforhodamine B assay; format: functional; settings: UO-31, 48 h
# MCF7 [5] = experiment: Cytotoxicity against human MCF7 cells assessed as growth inhibition after 48 hrs by MTT assay; format: functional, cell-based; settings: MCF7, 48 h
# A498 [6] = experiment: Cytotoxicity against human A498 cells assessed as cell growth at 0.01 uM after 48 hrs by sulforhodamine B assay relative to control; format: functional; settings: A498, 48 h, read-out: Activity
# 786-0 [7] = experiment: Cytotoxicity against human 786-0 cells assessed as cell growth at 0.01 uM after 48 hrs by sulforhodamine B assay relative to control; format: functional; settings: 786-0, 48 h, read-out: Activity
# SK-OV-3 = experiment: Cytotoxicity against human SKOV3 cells assessed as cell growth at 0.01 uM after 48 hrs by sulforhodamine B assay relative to control; format: functional; settings: SK-OV-3, 48 h, read-out: Activity
# SNB-19 = experiment: Cytotoxicity against human SNB19 cells assessed as cell growth at 0.01 uM after 48 hrs by sulforhodamine B assay relative to control; format: functional; settings: SNB-19, 48 h, read-out: Activity
# SW-620 = experiment: Cytotoxicity against human SW620 cells assessed as cell growth at 0.01 uM after 48 hrs by sulforhodamine B assay relative to control; format: functional; settings: SW-620, 48 h, read-out: Activity
# NCI-H226 = experiment: Cytotoxicity against human NCI-H226 cells assessed as cell growth at 0.01 uM after 48 hrs by sulforhodamine B assay relative to control; format: functional; settings: NCI-H226, 48 h, read-out: Activity
# MOLT-4 = experiment: Cytotoxicity against human MOLT4 cells assessed as cell growth at 0.01 uM after 48 hrs by sulforhodamine B assay relative to control; format: functional; settings: MOLT-4, 48 h, read-out: Activity
# DU-145 = experiment: Cytotoxicity against human DU145 cells assessed as cell growth at 0.01 uM after 48 hrs by sulforhodamine B assay relative to control; format: functional; settings: DU-145, 48 h, read-out: Activity
# MDA-MB-468 = experiment: Cytotoxicity against human MDA-MB-468 cells assessed as cell growth at 0.01 uM after 48 hrs by sulforhodamine B assay relative to control; format: functional; settings: MDA-MB-468, 48 h, read-out: Activity
# SR [8] = experiment: Cytotoxicity against human SR cells assessed as cell growth at 0.1 uM after 48 hrs by sulforhodamine B assay relative to control; format: functional; settings: read-out: Activity
# SK-MEL-5 = experiment: Cytotoxicity against human SK-MEL-5 cells assessed as cell growth at 0.1 uM after 48 hrs by sulforhodamine B assay relative to control; format: functional; settings: SK-MEL-5, 48 h, read-out: Activity
# OVCAR-3 = experiment: Cytotoxicity against human OVCAR3 cells assessed as cell growth at 0.1 uM after 48 hrs by sulforhodamine B assay relative to control; format: functional; settings: OVCAR-3, 48 h, read-out: Activity
# ACHN = experiment: Cytotoxicity against human ACHN cells assessed as cell growth at 0.1 uM after 48 hrs by sulforhodamine B assay relative to control; format: functional; settings: read-out: Activity
# RXF 393 = experiment: Cytotoxicity against human RXF393 cells assessed as cell growth at 0.1 uM after 48 hrs by sulforhodamine B assay relative to control; format: functional; settings: RXF 393, 48 h, read-out: Activity
# A549 = experiment: Cytotoxicity against human A549/ATCC cells assessed as cell growth at 1 uM after 48 hrs by sulforhodamine B assay relative to control; format: functional; settings: A549, 48 h, read-out: Activity
# A498 [9] = experiment: Cytotoxicity against human A498 cells assessed as cell growth at 1 uM after 48 hrs by sulforhodamine B assay relative to control; format: functional; settings: A498, 48 h, read-out: Activity
# MCF7 [10] = experiment: Cytotoxicity against human MCF7 cells assessed as cell growth at 1 uM after 48 hrs by sulforhodamine B assay relative to control; format: functional; settings: MCF7, 48 h, read-out: Activity
# MDA-MB-231 = experiment: Cytotoxicity against human MDA-MB-231 cells assessed as cell growth at 1 uM after 48 hrs by sulforhodamine B assay relative to control; format: functional; settings: MDA-MB-231, 48 h, read-out: Activity
# SK-MEL-28 = experiment: Cytotoxicity against human SK-MEL-28 cells assessed as cell growth at 10 uM after 48 hrs by sulforhodamine B assay relative to control; format: functional; settings: SK-MEL-28, 48 h, read-out: Activity
# UACC-257 [11] = experiment: Cytotoxicity against human UACC257 cells assessed as cell growth at 10 uM after 48 hrs by sulforhodamine B assay relative to control; format: functional; settings: UACC-257, 48 h, read-out: Activity
# UACC-62 [12] = experiment: Cytotoxicity against human UACC62 cells assessed as cell growth at 10 uM after 48 hrs by sulforhodamine B assay relative to control; format: functional; settings: UACC-62, 48 h, read-out: Activity
# IGROV-1 = experiment: Cytotoxicity against human IGROV1 cells assessed as cell growth at 10 uM after 48 hrs by sulforhodamine B assay relative to control; format: functional; settings: IGROV-1, 48 h, read-out: Activity
# UO-31 [13] = experiment: Cytotoxicity against human UO31 cells assessed as cell growth at 10 uM after 48 hrs by sulforhodamine B assay relative to control; format: functional; settings: UO-31, 48 h, read-out: Activity
# BT-549 = experiment: Cytotoxicity against human BT549 cells assessed as cell growth at 10 uM after 48 hrs by sulforhodamine B assay relative to control; format: functional; settings: BT-549, 48 h, read-out: Activity
# U-251 = experiment: Cytotoxicity against human U251 cells assessed as cell growth at 100 uM after 48 hrs by sulforhodamine B assay relative to control; format: functional; settings: U-251, 48 h, read-out: Activity
# UACC-257 [14] = experiment: Cytotoxicity against human UACC257 cells assessed as cell growth at 100 uM after 48 hrs by sulforhodamine B assay relative to control; format: functional; settings: UACC-257, 48 h, read-out: Activity
# A498 [15] = experiment: Cytotoxicity against human A498 cells assessed as cell growth at 100 uM after 48 hrs by sulforhodamine B assay relative to control; format: functional; settings: A498, 48 h, read-out: Activity
smiles,measurement,setting,value
COc1cc(-c2cc(/C=C/C(=O)c3ccc4c(c3)OCO4)[nH]n2)cc(OC)c1OC,LC50,RPMI-8226,> 100 µM
same,TGI,RPMI-8226,2.94 µM
same,TGI,SR [1],> 100 µM
same,CC50,SR [1],> 100 µM
same,LC50,NCI-H522,5.37 µM
same,TGI,NCI-H522,2.35 µM
same,LC50,UACC-62 [2],> 100 µM
same,TGI,UACC-62 [2],> 100 µM
same,LC50,786-0 [3],> 100 µM
same,TGI,786-0 [3],5.82 µM
same,LC50,TK-10,> 100 µM
same,TGI,TK-10,5.73 µM
same,LC50,UO-31 [4],26.3 µM
same,TGI,UO-31 [4],5.44 µM
same,IC50,MCF7 [5],0.9 µM
same,growth at 0.01 µM,A498 [6],89%
same,growth at 0.01 µM,786-0 [7],96%
same,growth at 0.01 µM,SK-OV-3,103%
same,growth at 0.01 µM,SNB-19,94%
same,growth at 0.01 µM,SW-620,99%
same,growth at 0.01 µM,NCI-H226,97%
same,growth at 0.01 µM,MOLT-4,97%
same,growth at 0.01 µM,DU-145,104%
same,growth at 0.01 µM,MDA-MB-468,90%
same,growth at 0.1 µM,SR [8],101%
same,growth at 0.1 µM,SK-MEL-5,97%
same,growth at 0.1 µM,OVCAR-3,101%
same,growth at 0.1 µM,ACHN,109%
same,growth at 0.1 µM,RXF 393,89%
same,growth at 1 µM,A549,92%
same,growth at 1 µM,A498 [9],83%
same,growth at 1 µM,MCF7 [10],65%
same,growth at 1 µM,MDA-MB-231,86%
same,growth at 10 µM,SK-MEL-28,-14%
same,growth at 10 µM,UACC-257 [11],2%
same,growth at 10 µM,UACC-62 [12],26%
same,growth at 10 µM,IGROV-1,29%
same,growth at 10 µM,UO-31 [13],-29%
same,growth at 10 µM,BT-549,-20%
same,growth at 100 µM,U-251,-56%
same,growth at 100 µM,UACC-257 [14],-1%
same,growth at 100 µM,A498 [15],-38%
COc1ccc(C(=O)/C=C/c2cc(-c3ccc(OC)c(OC)c3)n[nH]2)cc1OC,GI50,RPMI-8226,0.357 µM
same,TGI,RPMI-8226,2.26 µM
same,GI50,NCI-H522,1.69 µM
same,TGI,NCI-H522,3.9 µM
same,GI50,UACC-62 [2],1.86 µM
same,TGI,UACC-62 [2],4.08 µM
same,GI50,786-0 [3],1.81 µM
same,TGI,786-0 [3],5.14 µM
same,GI50,TK-10,4.96 µM
same,TGI,TK-10,47.7 µM
same,GI50,UO-31 [4],1.5 µM
same,TGI,UO-31 [4],3.8 µM
same,IC50,MCF7 [5],0.8 µM
same,growth at 0.01 µM,A498 [6],82%
same,growth at 0.01 µM,786-0 [7],92%
same,growth at 0.01 µM,SK-OV-3,83%
same,growth at 0.01 µM,SNB-19,91%
same,growth at 0.01 µM,SW-620,96%
same,growth at 0.01 µM,NCI-H226,94%
same,growth at 0.01 µM,MOLT-4,103%
same,growth at 0.01 µM,DU-145,106%
same,growth at 0.01 µM,MDA-MB-468,87%
same,growth at 0.1 µM,SR [8],81%
same,growth at 0.1 µM,SK-MEL-5,96%
same,growth at 0.1 µM,OVCAR-3,109%
same,growth at 0.1 µM,ACHN,96%
same,growth at 0.1 µM,RXF 393,84%
same,growth at 1 µM,A549,77%
same,growth at 1 µM,A498 [9],63%
same,growth at 1 µM,MCF7 [10],49%
same,growth at 1 µM,MDA-MB-231,76%
same,growth at 10 µM,SK-MEL-28,-38%
same,growth at 10 µM,UACC-257 [11],-41%
same,growth at 10 µM,UACC-62 [12],-57%
same,growth at 10 µM,IGROV-1,6%
same,growth at 10 µM,UO-31 [13],-52%
same,growth at 10 µM,BT-549,-87%
same,growth at 100 µM,U-251,-53%
same,growth at 100 µM,UACC-257 [14],-70%
same,growth at 100 µM,A498 [15],-55%
COc1ccc(C(=O)/C=C/c2cc(-c3ccc4c(c3)OCO4)n[nH]2)cc1OC,LC50,RPMI-8226,> 100 µM
same,TGI,RPMI-8226,5.24 µM
same,TGI,SR [1],6.48 µM
same,CC50,SR [1],> 100 µM
same,LC50,NCI-H522,12.7 µM
same,TGI,NCI-H522,4.44 µM
same,LC50,UACC-62 [2],40.9 µM
same,TGI,UACC-62 [2],14.8 µM
same,LC50,786-0 [3],42.3 µM
same,TGI,786-0 [3],11.4 µM
same,GI50,TK-10,2.88 µM
same,LC50,TK-10,70.4 µM
same,TGI,TK-10,8.97 µM
same,GI50,UO-31 [4],2.32 µM
same,LC50,UO-31 [4],34.5 µM
same,TGI,UO-31 [4],10.1 µM
same,IC50,MCF7 [5],2.5 µM
same,growth at 0.01 µM,A498 [6],78%
same,growth at 0.01 µM,786-0 [7],96%
same,growth at 0.01 µM,SK-OV-3,99%
same,growth at 0.01 µM,SNB-19,91%
same,growth at 0.01 µM,SW-620,100%
same,growth at 0.01 µM,NCI-H226,90%
same,growth at 0.01 µM,MOLT-4,97%
same,growth at 0.01 µM,DU-145,101%
same,growth at 0.01 µM,MDA-MB-468,92%
same,growth at 0.1 µM,SR [8],88%
same,growth at 0.1 µM,SK-MEL-5,97%
same,growth at 0.1 µM,OVCAR-3,104%
same,growth at 0.1 µM,ACHN,100%
same,growth at 0.1 µM,RXF 393,97%
same,growth at 1 µM,A549,85%
same,growth at 1 µM,A498 [9],72%
same,growth at 1 µM,MCF7 [10],88%
same,growth at 1 µM,MDA-MB-231,90%
same,growth at 10 µM,SK-MEL-28,36%
same,growth at 10 µM,UACC-257 [11],42%
same,growth at 10 µM,UACC-62 [12],19%
same,growth at 10 µM,IGROV-1,-4%
same,growth at 10 µM,BT-549,-57%
same,growth at 100 µM,U-251,-91%
same,growth at 100 µM,UACC-257 [14],-81%
same,growth at 100 µM,A498 [15],-93%
